# From PMC7069920, “Schizandrin A exhibits potent anticancer activity in colorectal cancer cells by inhibiting heat shock factor 1” (Bioscience Reports, 2020)
# Experiments:
# [1] = tested on: SW480 cells; assay: MTS cell viability assay, SW480; assay type: cell-based; settings: Homo sapiens, 72 h, read-out: IC50 (50% inhibition), antiproliferative effect
# Procedure: (§1) The Cell Titer 96 Aqueous Non-Radioactive Cell Proliferation Assay Kit (Promega, U.S.A.) was utilized to measure cell viability. RKO, DLD-1 cells (5 × 10^3 cells/well) and SW620, SW480 (6 × 10^3 cells/well) were seeded in 96-well plates overnight. This was followed by the removal of the culture medium and the exposure of all cells to different concentrations of chemical treatment for 72 h. The absorbance value of each well was determined by a microplate reader at 490 nm. Each experiment was repeated for three times.
# [2] = statement in discussion, no experiment and reference not given; cited from earlier work
# [3] = tested on: DLD-1 cells; assay: MTS cell viability assay, DLD-1; assay type: cell-based; settings: Homo sapiens, 72 h, read-out: IC50, antiproliferative effect
# Procedure: as §1
# [4] = tested on: HSF1; assay: HSE luciferase reporter assay (heat shock-induced HSF1 reporter activity); assay type: cell-based; settings: Homo sapiens, RKO cells, 30 min pretreatment, 43°C 1 h, 5 h recovery
# Procedure: The double-strand DNA containing four copies of the palindromic HSE (5′-[…]-3′) was synthesized and inserted into the multiple cloning site (MCS) of pGL3-basic vector (Promega, U.S.A.), which was named as p(HSE)4-basic vector. Then, the Dual-Glo® Luciferase Assay System (Promega, U.S.A.) was used to measure the activity of the reporter. Briefly, RKO cells (3 × 10^5 cells/well) were seeded in six-well plates. After being cultured overnight, cells were co-transfected with 2 μg of p(HSE)4-basic vector and 0.2 μg of pRL-TK using X-treme GENE HP DNA Transfection Reagent (Roche, U.S.A.) according to the manufacturer’s protocol. The Renilla luciferase gene was transfected as an internal control vector. Twenty-four hours after transfection, cells were trypsinized and seeded in 12-well plates at a density of 8 × 10^4 cells per well. The next day, cells were incubated with Sch A at different concentrations for 30 min, exposed to heat shock at 43°C for 60 min, and then incubated further at 37°C for 5 h. Firefly and Renilla luciferase activities were measured using a dual-light reporter gene assay kit (Promega) with a Synergy 2 BioTek plate reader (BioTek, U.S.A.).
# [5] = tested on: RKO cells; assay: MTS cell viability assay, RKO; assay type: cell-based; settings: Homo sapiens, 72 h, read-out: IC50, antiproliferative effect
# Procedure: as §1
# [6] = tested on: SW620 cells; assay: MTS cell viability assay, SW620; assay type: cell-based; settings: Homo sapiens, SW-620, 72 h, read-out: IC50 (50% inhibition), antiproliferative effect
# Procedure: as §1
# [7] = tested on: p-Rb (S807/811), Cyclin D1, Cdk4, Cdk6; assay: Western blot of cell cycle-related proteins; assay type: cell-based, human; settings: RKO, 50-150 μM, 24 h
# Procedure: (§2) After 24 h of treatment as indicated, the cells were washed once with PBS. The total proteins were extracted with RIPA buffer supplemented with protease inhibitors (Roche, U.S.A.) and quantified with BSA standard methodology. Equal amounts of proteins were separated by SDS/PAGE and transferred to a PVDF membrane. After blocking with 5% non-fat dry milk in TBST for 1.5 h, the membrane was incubated with a specific primary antibody diluted 1:1000 overnight at 4°C, and the secondary antibody was then conjugated with HRP (1:5000, Santa Cruz, CA) at room temperature for 2 h. The immunoreactive bands were visualized with enhanced chemiluminescence liquid (Millipore, Billerica, MA, U.S.A.) in Amersham Imager 600 system (GE Healthcare Life Sciences, Shanghai, China).
# [8] = tested on: Cleaved-PARP, Cleaved-caspase-3, Bcl-2; assay: Western blot of apoptosis-related proteins; assay type: cell-based, human; settings: RKO, 50-150 μM, 24 h
# Procedure: Flow cytometer analysis and Western blotting were used to detect cell apoptosis. For flow cytometer analysis of apoptosis, cells were treated […] for 24 h, washed twice with PBS, and re-suspended in 100 μl of 1 × binding buffer. Five microliters of FITC Annexin V and propidium iodide (PI) (556547, BD Biosciences, U.S.A.) were added to the cell suspension and then incubated at room temperature for 15 min. After dilution with 400 μl binding buffer, the samples were analyzed using an ACS Calibur flow cytometer (BD). For apoptosis using Western blotting, cleaved caspase 3, cleavage of PARP, Bcl-2, and BCl-xL were analyzed.
# as §2
# [9] = biological target: T1, human recombinant HSF1 full-length protein (Homo sapiens, UniProt Q00613); assay: SPR direct binding to HSF1
# T1 sequence (Q00613 1-529): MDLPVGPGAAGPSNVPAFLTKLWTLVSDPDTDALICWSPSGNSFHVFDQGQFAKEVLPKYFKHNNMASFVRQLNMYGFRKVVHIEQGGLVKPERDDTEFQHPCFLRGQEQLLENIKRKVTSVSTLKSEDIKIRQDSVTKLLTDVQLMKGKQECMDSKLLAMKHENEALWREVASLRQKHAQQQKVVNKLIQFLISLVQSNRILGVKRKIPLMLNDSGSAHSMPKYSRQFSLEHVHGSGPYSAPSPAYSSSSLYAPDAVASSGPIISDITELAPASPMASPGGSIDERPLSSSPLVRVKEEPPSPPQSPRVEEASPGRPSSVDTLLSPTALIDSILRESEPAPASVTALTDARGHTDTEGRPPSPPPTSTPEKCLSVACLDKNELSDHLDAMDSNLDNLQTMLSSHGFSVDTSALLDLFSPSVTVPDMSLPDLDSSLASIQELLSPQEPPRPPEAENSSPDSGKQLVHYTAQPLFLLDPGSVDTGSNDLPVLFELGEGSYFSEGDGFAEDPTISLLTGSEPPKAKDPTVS
# Procedure: SPR experiments were performed on a ProteOn XPR36 Protein Interaction Array system (Bio-Rad Laboratories, Hercules, CA, U.S.A.). Briefly, HSF1 solution in PBST (5 mM, pH 7.4) at a concentration of 1 mg/ml was diluted to 30 μg/ml with sodium acetate buffer (pH 4.5). The chip was activated with EDC/NHS (10 μl/min for 600 s). Then, HSF1 was loaded (5 μl/min for 400 s) and immobilized covalently. Approximately 7000 RU of HSF1 was immobilized on the chip. Any excess of unbound HSF1 was removed by flowing PBS solution (5 mM, pH 7.4, with 5%, w/v, DMSO). […] Five concentrations were injected simultaneously at a flow rate of 30 μM/min for 120 s of association phase, followed with 120 s of dissociation phase at 25°C. The final graph was obtained by subtracting blank sensorgrams from the duplex or quadruplex sensorgrams. Data were analyzed using the ProteOn manager software.
# [10] = tested on: HSP70, HSP27 and HSP90 mRNA; assay: qRT-PCR of HSF1 target genes after heat shock; assay type: cell-based, human; settings: RKO, 50-150 μM, heat shock 43°C 1 h, recovery 37°C 0.5 h
# Procedure: Total RNA was extracted with TRIzol reagent (Invitrogen) following the manufacturer’s protocol. RNA concentrations were quantified by NanoDrop 2000 (Nanodrop, U.S.A.). Two micrograms RNA was reverse transcribed with High-Capacity cDNA Reverse Transcription Kit (Applied Biosystems, U.S.A.). Quantitative real-time PCR was performed to determine the mRNA expression level using SYBR Green Master Mix Kit and Light Cycler 480 II system (Roche, Shanghai, China).
# Relative quantities of HSP70, HSP90 and HSP27 mRNA were normalized against ACTB mRNA.
# [11] = tested on: RKO cells; assay: Cell cycle analysis by flow cytometry (PI); assay type: cell-based, human
# Procedure: Cells (3 × 10^5 cells/well) were seeded in six-well plates and allowed to adhere overnight. The next day, the cells were treated with different compounds as indicated for 24 h. The cells were then trypsinized, washed, and fixed in 75% ice-cold ethanol at 4°C overnight. After centrifugation, the pellets were washed with cold PBS, suspended in 500 μl PBS with […] PI and incubated in the dark at 4°C for 30 min. Then cell suspension was tested using an FACS Calibur instrument (Becton Dickinson FACSCalibor, BD Biosciences, Franklin Lakes, NJ, U.S.A.).
# [12] = tested on: RKO and SW620 cells; assay: Clonogenic (colony-forming) assay; assay type: cell-based, human; settings: 75 and 150 μM for 24 h, colonies stained on 14th day, vs negative control
# Procedure: RKO cells were seeded at a density of 800 cells per well in six-well cell culture plate overnight. Then Sch A was mixed into the culture medium and added at different concentrations. After 24 h, the culture medium was replaced with fresh culture medium, and was allowed to grow for an additional 14 ays. Following this, the medium was removed from the colonies, which were then washed twice with PBS, fixed with methanol for 15 min, stained with Crystal Violet for 15 min, and finally washed with running water for 5 min. Colonies containing more than 50 cells were counted, and then photographed for visualization.
# Furthermore, colony-forming assays were performed to assess the long-term inhibitory effects of Sch A treatment. After 24 h of treatment with Sch A (75 and 150 μM), the cell culture was replaced with fresh medium every 3 days. On the 14th day, cell colonies were stained with 0.1% Crystal Violet and photographed.
# [13] = tested on: CCD 841 CoN cells; assay: MTS cell viability assay, normal colon epithelial cells; assay type: cell-based, human; settings: 72 h
# [14] = tested on: Hsp70 and Hsp27; assay: Western blot of HSF1 downstream proteins; assay type: cell-based, human; settings: RKO, 50-150 μM, heat shock or 24 h at normal temperature
# Procedure: as §2
# [15] = tested on: HSF1; settings: read-out: IC50, heat shock-induced HSF1 reporter activity; cited from earlier work
smiles,measurement,setting,value
"COc1cc2c(c(OC)c1OC)-c1c(cc(OC)c(OC)c1OC)C[C@H](C)[C@H](C)C2 [Sch A, Schizandrin A]",IC50,[1],87.6 µM
same,water solubility,[2],low water solubility
same,IC50,[3],> 150 µM
same,inhibition at 100 µM,[4],~50%
same,IC50,[5],68.7 µM
same,IC50,[6],85.7 µM
same,"expression of cell cycle-related proteins (p-Rb, Cyclin D1, Cdk4, Cdk6)",[7],reducing the expression of cell cycle-related proteins
same,expression of anti-apoptotic protein Bcl-2,[8],decreased
same,expression of pro-apoptotic molecules (Cleaved-PARP and Cleaved-caspase-3),[8],significantly elevated
same,Kd,[9],106 µM
same,kon,"[9]; pH 7.4, read-out: Ka (association constant, SPR)",26900 M⁻¹ s⁻¹
same,"transcription of HSF1 target genes (HSP70, HSP27, HSP90 mRNA)",[10],effectively blocked the transcription of HSF1 target genes
same,Dip G2,"[11]; 50 μM, 24 h (DMSO 15.92 %)",14.49%
same,Dip S,"[11]; 50 μM, 24 h (DMSO 38.03 %)",30.80%
same,Dip G1,"[11]; 50 μM, 24 h (DMSO 46.05 %)",54.71%
same,Dip G1,"[11]; 75 μM, 24 h",62.16%
same,Dip G2,"[11]; 75 μM, 24 h",10.56%
same,Dip S,"[11]; 75 μM, 24 h",27.28%
same,Dip G1,"[11]; 100 μM, 24 h",72.26%
same,Dip G2,"[11]; 100 μM, 24 h",7.82%
same,Dip S,"[11]; 100 μM, 24 h",19.93%
same,Dip G1,"[11]; 150 μM, 24 h",82.94%
same,Dip G2,"[11]; 150 μM, 24 h",8.53%
same,Dip S,"[11]; 150 μM, 24 h",8.53%
same,effect on clone formation,[12],stronger inhibitory effect on cancer cell growth in a dose-dependent manner
same,effect on cell viability,"[13]; CCD 841 CoN cells, up to 150 μM",little effect on the cell viability
same,IC50,"[13]; Homo sapiens, CCD 841 CoN normal colon epithelial cells, MTS, read-out: IC50, antiproliferative effect",> 150 µM
same,HSF1-regulated downstream signaling induced by heat shock and basal expression of Hsp 70 and Hsp 27,[14],effectively down-regulated
CNc1ccc([N+](=O)[O-])c(Nc2ccc3[nH]ncc3c2)n1 [KRIBB11],IC50,[15],1.2 µM
